In patent publication US20150105252A1, “SUBSTITUTED PYRAZOLES AS HERBICIDES” (E I DU PONT DE NEMOURS AND COMPANY, priority 2013, published 2015):

Experiments:
soybean = assay: Test C postemergence; type: in vivo, Glycine max; details: postemergence; for Plant response rating, Soybean: 250 g ai/ha, scale 0 to 100 (0 no effect, 100 complete control); for Soybean plant response rating: 125 g ai/ha, scale 0 to 100, 0 no effect, 100 complete control
In short: (§1)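 Scores of 0 (no effect) to 100 (complete control) were assigned by eye after 13–15 days, comparing treated pots with controls. Soil-applied (preemergence) treatments went onto seeds in loam and sand; foliar (postemergence) treatments onto 1- to 4-leaf plants in peat medium.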

morningglory [1] = assay: Test A postemergence; type: in vivo, Ipomoea spp.
In short: (§2)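 Greenhouse test in loam soil/sand blend; compounds formulated in non-phytotoxic solvent with surfactant, applied as preemergence directed soil spray or postemergence to plants 2–10 cm tall at one- to two-leaf stage. Injury rated visually versus untreated controls after approximately 10 days on a 0 (no effect) to 100 (complete control) scale.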

foxtail, giant = assay: Test A postemergence; type: in vivo, Setaria faberii
In short: as §2

oilseed rape [2] = assay: Test C postemergence; type: in vivo, Brassica napus; details: postemergence; for Oilseed Rape plant response rating: 62 g ai/ha, scale 0 to 100
In short: as §1

morningglory [3] = assay: Test C preemergence; type: in vivo, Ipomoea coccinea; details: preemergence; for Plant response rating, Morningglory: 125 g ai/ha, scale 0 to 100, 0 = no effect, 100 = complete control
In short: as §1

velvetleaf = assay: Test C postemergence; type: in vivo, Abutilon theophrasti; details: postemergence; for Plant response rating, Velvetleaf: 250 g ai/ha, scale 0 to 100 (0 no effect, 100 complete control); for Velvetleaf plant response rating: scale 0 to 100
In short: as §1

crabgrass, large [4] = assay: Test C postemergence; type: in vivo, Digitaria sanguinalis; details: for Plant response rating (scale of 0 to 100 where 0 is no effect and 100 is complete control), Crabgrass, Large: Postemergence, 31 g ai/ha, visually evaluated after 13 to 15 days; for Crabgrass, Large plant response rating / Plant response rating, Crabgrass, Large: postemergence; for Crabgrass, Large plant response rating: 62 g ai/ha, scale 0 to 100
In short: as §1

johnsongrass = assay: Test C preemergence; type: in vivo, Sorghum halepense; details: preemergence; for Plant response rating, Johnsongrass: 125 g ai/ha, scale 0 to 100, 0 = no effect, 100 = complete control
In short: as §1

waterhemp = assay: Test C postemergence; type: in vivo, Amaranthus rudis; details: postemergence; for Plant response rating, Waterhemp: 250 g ai/ha, scale 0 to 100 (0 no effect, 100 complete control); for Waterhemp plant response rating: scale 0 to 100
In short: as §1

blackgrass = assay: Test C preemergence; type: in vivo, Alopecurus myosuroides; details: preemergence; for Plant response rating, Blackgrass: 125 g ai/ha, scale 0 to 100, 0 = no effect, 100 = complete control
In short: as §1

crabgrass, large [5] = assay: Test C preemergence; type: in vivo, Digitaria sanguinalis; details: preemergence; for Plant response rating, Crabgrass, Large: 125 g ai/ha, scale 0 to 100, 0 = no effect, 100 = complete control
In short: as §1

ducksalad = assay: Test B flood; type: in vivo, Heteranthera limosa; details: 250 g ai/ha, visual rating on 0 to 100 scale (0 no effect, 100 complete control), 13 to 15 days
In short: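 Each compound is applied to the floodwater of pots holding 2-leaf seedlings, water standing 3 cm over the soil throughout. Plants stay in a greenhouse 13 to 15 days before visual scoring against controls from 0 (no effect) to 100 (complete control).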

oilseed rape [6] = assay: Test C preemergence; type: in vivo, Brassica napus; details: preemergence; for Plant response rating, Oilseed Rape: 125 g ai/ha, scale 0 to 100, 0 = no effect, 100 = complete control
In short: as §1

[7] = Postemergence, 500 g ai/ha, 0 to 100 scale (0 no effect, 100 complete control)
[8] = postemergence, 125 g ai/ha, about 10 days, visual rating on 0 to 100 scale (0 no effect, 100 complete control)
[9] = 250 g ai/ha, scale 0 to 100 (0 no effect, 100 complete control)
[10] = 125 g ai/ha, scale 0 to 100, 0 no effect, 100 complete control
[11] = 31 g ai/ha, visual rating, scale 0 to 100 (0 no effect, 100 complete control), 13 to 15 days
[12] = 62 g ai/ha, scale 0 to 100 (0 no effect, 100 complete control), 13 to 15 days
[13] = 250 g ai/ha, scale 0 to 100, 0 is no effect, 100 is complete control
[14] = Postemergence, 125 g ai/ha, 0 to 100 scale, 0 no effect, 100 complete control

Structure (SMILES)	Plant response rating, Soybean (soybean)	Soybean plant response rating (soybean)	Morningglory plant response rating (morningglory [1]; [7])	Foxtail, Giant plant response rating (foxtail, giant; [7])	Foxtail, Giant plant response rating (foxtail, giant; [8])	Oilseed Rape plant response rating (oilseed rape [2])	Plant response rating, Oilseed Rape (oilseed rape [2]; [9])	Plant response rating, Oilseed Rape (oilseed rape [2]; [10])	Morningglory plant response rating (morningglory [3]; [11])	Morningglory plant response rating (morningglory [3]; [12])	Plant response rating, Morningglory (morningglory [3]; 13 to 15 days)	Morningglory plant response rating (morningglory [3]; [13])	Plant response rating, Velvetleaf (velvetleaf)	Velvetleaf plant response rating (velvetleaf)	Plant response rating (scale of 0 to 100 where 0 is no effect and 100 is complete control), Crabgrass, Large (crabgrass, large [4])	Crabgrass, Large plant response rating (crabgrass, large [4])	Plant response rating, Crabgrass, Large (crabgrass, large [4]; [9])	Plant response rating, Crabgrass, Large (crabgrass, large [4]; [10])	Johnsongrass plant response rating (johnsongrass; [11])	Johnsongrass plant response rating (johnsongrass; [12])	other results
CCNC(=O)c1cc(CC)n(Cc2cc(C(F)(F)F)nn2C)n1 [Compound 154]	90	85	100	100	100	45	70	60	35	90	100	100	55	25	5	5	10	5	5	5	Morningglory plant response rating (morningglory [1]; [8]): 100; Plant response rating, Johnsongrass (johnsongrass; 13 to 15 days): 55; Johnsongrass plant response rating (johnsongrass; [13]): 85; Plant response rating, Waterhemp (waterhemp): 85; Waterhemp plant response rating (waterhemp): 65; Blackgrass plant response rating (blackgrass; [11]): 75; Blackgrass plant response rating (blackgrass; [12]): 90; Plant response rating, Blackgrass (blackgrass; 13 to 15 days): 90; Blackgrass plant response rating (blackgrass; [13]): 90; Crabgrass, Large plant response rating (crabgrass, large [5]; [11]): 100; Crabgrass, Large plant response rating (crabgrass, large [5]; [12]): 100; Plant response rating, Crabgrass, Large (crabgrass, large [5]; 13 to 15 days): 100; Crabgrass, Large plant response rating (crabgrass, large [5]; [13]): 100; Plant response rating, Ducksalad (ducksalad): 90; Oilseed Rape plant response rating (oilseed rape [6]; [11]): 85; Oilseed Rape plant response rating (oilseed rape [6]; [12]): 95; Plant response rating, Oilseed Rape (oilseed rape [6]; 13 to 15 days): 95; Oilseed Rape plant response rating (oilseed rape [6]; [13]): 95
CCCNC(=O)c1cc(OCC)n(Cc2ccnc(C(F)(F)F)c2)n1 [Compound 187]	98	95	100	90	90	50	80	75	85	100	100	100	65	55	10	20	95	60	75	98	Morningglory plant response rating (morningglory [1]; [14]): 40; Plant response rating, Johnsongrass (johnsongrass; 13 to 15 days): 100; Johnsongrass plant response rating (johnsongrass; [13]): 100; Plant response rating, Waterhemp (waterhemp): 95; Waterhemp plant response rating (waterhemp): 70; Blackgrass plant response rating (blackgrass; [11]): 90; Blackgrass plant response rating (blackgrass; [12]): 90; Plant response rating, Blackgrass (blackgrass; 13 to 15 days): 90; Blackgrass plant response rating (blackgrass; [13]): 95; Crabgrass, Large plant response rating (crabgrass, large [5]; [11]): 100; Crabgrass, Large plant response rating (crabgrass, large [5]; [12]): 100; Plant response rating, Crabgrass, Large (crabgrass, large [5]; 13 to 15 days): 100; Crabgrass, Large plant response rating (crabgrass, large [5]; [13]): 100; Plant response rating, Ducksalad (ducksalad): 90; Oilseed Rape plant response rating (oilseed rape [6]; [11]): 50; Oilseed Rape plant response rating (oilseed rape [6]; [12]): 90; Plant response rating, Oilseed Rape (oilseed rape [6]; 13 to 15 days): 95; Oilseed Rape plant response rating (oilseed rape [6]; [13]): 100
CCCc1cc(C(=O)NC2CC2)nn1Cc1cc(C(F)(F)F)nn1C [Compound 202]	98	98	90	90	90	30	80	65	90	100	100	100	65	40	5	10	70	25	50	85	Morningglory plant response rating (morningglory [1]; [14]): 70; Plant response rating, Johnsongrass (johnsongrass; 13 to 15 days): 100; Johnsongrass plant response rating (johnsongrass; [13]): 100; Plant response rating, Waterhemp (waterhemp): 90; Waterhemp plant response rating (waterhemp): 85; Blackgrass plant response rating (blackgrass; [11]): 10; Blackgrass plant response rating (blackgrass; [12]): 85; Plant response rating, Blackgrass (blackgrass; 13 to 15 days): 90; Blackgrass plant response rating (blackgrass; [13]): 90; Crabgrass, Large plant response rating (crabgrass, large [5]; [11]): 100; Crabgrass, Large plant response rating (crabgrass, large [5]; [12]): 100; Plant response rating, Crabgrass, Large (crabgrass, large [5]; 13 to 15 days): 100; Crabgrass, Large plant response rating (crabgrass, large [5]; [13]): 100; Plant response rating, Ducksalad (ducksalad): 95; Oilseed Rape plant response rating (oilseed rape [6]; [11]): 100; Oilseed Rape plant response rating (oilseed rape [6]; [12]): 100; Plant response rating, Oilseed Rape (oilseed rape [6]; 13 to 15 days): 100; Oilseed Rape plant response rating (oilseed rape [6]; [13]): 100
